Assay results from ChEMBL document CHEMBL1201862, “PubChem BioAssay data set” (2004).
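Exposure lasted 48 hours, with cells grown in 96-well plates and compounds tested at five concentrations. GI50: concentration for 50% inhibition of growth.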 Active and inactive are the calls of the source. Rule as the data show it: active = GI50 up to about 1.1 µM and inactive = higher.

How the values were obtained:
Experiment in all cases: NCI-60 cell line screen, 48 h
[1] = test system: COLO 205
[2] = test system: HOP-92
[3] = test system: K562
[4] = test system: M14
[5] = test system: MDA-MB-231
[6] = test system: MDA-MB-435
[7] = test system: MDA-N
[8] = test system: NCI-H23
[9] = test system: NCI-H522
[10] = test system: OVCAR-3
[11] = test system: OVCAR-4
[12] = test system: RPMI-8226
[13] = test system: SK-MEL-5
[14] = test system: SN12C
[15] = test system: SNB-75
[16] = test system: SW-620
[17] = test system: T47D
[18] = test system: TK-10
[19] = test system: A498
[20] = test system: UO-31

Measured: GI50

COC(=O)C1=Nc2c(C)nn(-c3ccccc3)c2N=C(c2ccc(C)cc2)C1
inactive: [1] > 10 µM | [2] > 10 µM | [3] > 10 µM | [4] > 10 µM | [5] > 10 µM | [6] > 10 µM | [7] > 10 µM | [8] > 10 µM | [9] > 10 µM | [10] > 10 µM | [11] > 10 µM | [12] > 10 µM | [13] > 10 µM | [14] > 10 µM | [15] > 10 µM | [16] > 10 µM | [17] > 10 µM | [18] > 10 µM

CCNC1=C(NC(=O)c2ccc(F)cc2)C(=O)c2ccccc2C1=O
inactive: [1] 26.7 µM | [2] > 100 µM | [3] 65.8 µM | [4] 24.5 µM | [5] 44.8 µM | [6] 18.2 µM | [7] 33.6 µM | [8] 34.6 µM | [9] 21 µM | [10] 36.6 µM | [11] 40.1 µM | [12] > 100 µM | [13] 35 µM | [14] 38.7 µM | [15] 62.2 µM | [16] 32.2 µM | [17] 47.1 µM | [18] > 100 µM

CC1CNc2ccccc2N=C1NN (centres undefined)
inactive: [19] > 100 µM | [1] > 100 µM | [3] > 100 µM | [4] > 100 µM | [5] > 100 µM | [6] > 100 µM | [7] > 100 µM | [8] > 100 µM | [9] > 100 µM | [10] > 100 µM | [11] > 100 µM | [12] > 36.5 µM | [13] > 100 µM | [14] > 100 µM | [16] > 100 µM | [17] > 100 µM | [18] > 100 µM | [20] > 100 µM

O=C1C(Cl)C(c2cccc(Cl)c2)N1c1ccc(-n2c(S)nc3ccccc3c2=O)cc1 (centres undefined)
inactive: [1] 24.5 µM | [2] 19.9 µM | [3] 17.9 µM | [4] 19.5 µM | [5] 20 µM | [6] 15.7 µM | [7] 19.1 µM | [8] 19.6 µM | [9] 15.1 µM | [10] 30.5 µM | [11] 13.6 µM | [12] 17.9 µM | [13] 15.1 µM | [14] 15.8 µM | [16] 29.6 µM | [17] 31.8 µM | [18] 29.6 µM | [20] 20 µM

CC1CCCc2c(C#N)c(N)nc(-c3ccc(Cl)cc3)c21 (centres undefined)
inactive: [19] 68.4 µM | [1] 18.8 µM | [3] 8.69 µM | [4] 19.2 µM | [5] 22.1 µM | [6] 23.8 µM | [7] 31 µM | [8] 16.8 µM | [10] 12.6 µM | [12] 11.1 µM | [13] 9.38 µM | [14] 20.3 µM | [15] 22.4 µM | [16] 53.6 µM | [17] 5.96 µM | [18] 29.8 µM | [20] 13.8 µM

C[n+]1c2ccccc2c(C(=O)NC(CCCNC(=N)N)C(=O)O)c2ccccc21 (centres undefined)
inactive: [19] > 100 µM | [1] > 100 µM | [3] > 100 µM | [4] > 100 µM | [5] > 100 µM | [6] > 100 µM | [7] > 100 µM | [8] > 100 µM | [10] > 100 µM | [11] > 100 µM | [12] > 100 µM | [13] > 100 µM | [14] > 100 µM | [15] > 100 µM | [16] > 100 µM | [17] > 100 µM | [18] > 100 µM | [20] > 100 µM

Cc1ccc(Cc2cc(N3CCN(c4cccc(Cl)c4)CC3)nnc2C)cc1
inactive: [19] > 100 µM | [1] 29.6 µM | [4] > 100 µM | [5] > 100 µM | [6] 27.7 µM | [7] 16.4 µM | [8] 37.7 µM | [9] 18.7 µM | [10] > 100 µM | [11] > 100 µM | [12] 17.8 µM | [13] 11.5 µM | [14] 56.4 µM | [15] 50.4 µM | [16] 34.3 µM | [17] 24.3 µM | [18] > 100 µM | [20] > 100 µM

CC(C)C1CC[C@H](C)C[C@@H]1OC(=O)C(C(=O)O[C@H]1C[C@@H](C)CCC1C(C)C)C(O)[C@@H]1OC(C)(C)O[C@H]1C1COC(C)(C)O1 (some centres undefined)
inactive: [1] 13.6 µM | [3] 11.1 µM | [4] 19 µM | [5] 17 µM | [6] 16.6 µM | [7] 18.5 µM | [8] 13.4 µM | [9] 1.58 µM | [10] 19.9 µM | [11] 26 µM | [12] 16.7 µM | [13] 15.8 µM | [14] 16.5 µM | [15] 15.7 µM | [16] 14.2 µM | [17] 13.1 µM | [18] 20 µM | [20] 17.3 µM

CCSCCCN(CCCSCC)CCCSCC
inactive: [1] > 100 µM | [2] 5.16 µM | [3] > 100 µM | [4] > 100 µM | [5] > 100 µM | [6] > 100 µM | [7] > 100 µM | [8] > 100 µM | [9] 45.8 µM | [10] > 100 µM | [11] > 100 µM | [13] > 100 µM | [14] > 100 µM | [15] > 100 µM | [16] > 100 µM | [17] > 100 µM | [20] > 100 µM

O=C(OC1C2OC(=O)c3cc(O)c(O)c(O)c3Oc3cc4c(c(O)c3O)-c3c(cc(O)c(O)c3O)C(=O)OCC3OC(O)C(OC(=O)c5cc(O)c(O)c(O)c5Oc5cc6c(c(O)c5O)-c5c(cc(O)c(O)c5O)C(=O)OC1C(COC6=O)OC2O)C(OC(=O)c1cc(O)c(O)c(O)c1)C3OC4=O)c1cc(O)c(O)c(O)c1 (centres undefined)
inactive: [1] 5.87 µM | [2] 19 µM | [3] 7.8 µM | [4] 35.2 µM | [5] 19.6 µM | [6] 21.4 µM | [7] 21.2 µM | [8] 24.6 µM | [10] 25.8 µM | [11] 17.8 µM | [12] 4.59 µM | [13] 53.8 µM | [14] 26.7 µM | [16] 13.2 µM | [17] > 100 µM | [18] 38.7 µM | [20] 4.8 µM

COC(=O)C(C(=O)C(=O)Nc1ccccc1C#N)c1nc2ccc([N+](=O)[O-])cc2nc1O (centres undefined)
inactive: [1] > 100 µM | [2] > 100 µM | [4] > 100 µM | [5] > 100 µM | [6] > 100 µM | [7] > 100 µM | [8] > 100 µM | [9] 53.7 µM | [10] > 100 µM | [11] 53.3 µM | [13] > 100 µM | [14] > 100 µM | [15] > 100 µM | [16] > 100 µM | [17] > 100 µM | [18] > 100 µM | [20] > 100 µM
